Assay results published in patent US8026211B2, “Methods and formulations for increasing intestinal function” (Technion Research & Development Foundation Ltd., priority 2004, dated 2011).

Legend:
infants with SBS = experiment: Oral insulin supplementation in infants with SBS (clinical evaluation); format: in vivo, human
Description: 1. Infants with less than 30 cm of small intestine (with ileo-cecal valve intact).
2. Infants with less than 40 cm without ileo-cecal valve.
3. Infants and children younger than 10 years of age, with SBS who are […] nutrition dependent and are not expected to be weaned of […] nutrition
Exclusion criteria: Infants in an unstable condition such as sepsis, acute gastroenteritis, pneumonia.
Dosage: 1 unit of insulin (Actrapid, Novonordisk, Denmark)/kg body weight per dose×4/day (every 6 hours) was administered for 28 days. Insulin was administered every six hours. Insulin will be provided as 1 u/ml of 0.45 NaCl orally.
Glucose monitoring: Following the first insulin dose, blood glucose levels were measured, immediately prior to the first and second meal following the first dose of insulin. Measurements were repeated for the first three days following supplementation and then weekly (days 7, 14, 21 and 28)
The clinical evaluation of the patients' conditions included the following parameters:
1. Weight, length, head circumference, MAC (mid arm circumference), TSF (triceps skin fold)—weekly
3. […] intake of calories, carbohydrates, lipids
4. Blood concentration levels of glucose, albumin, ALT, AST, GGT, ALP, total cholesterol, triglycerides (fasting), HDL-cholesterol, insulin (fasting, before insulin administration)
5. Blood amino acid levels
6. Insulin antibodies. 1 ml of serum was removed prior to treatment and at day 28 following treatment. The samples were frozen at −70° C. and sent, on dry ice, to Division of Pediatric Gastroenterology and Nutrition, Meyer Children's Hospital of Haifa, Bat-Galim 31096, Haifa for analysis.

[1] = test system: rat model of short bowel syndrome; experiment: Rat model of SBS: histology, villus height and crypt depth; format: in vivo
Procedure: (§1) Animal treatment: Animals were obtained from the Rappaport Faculty of Medicine (Technion, Haifa, Israel). Male rats weighing 240-260 g were kept in individual stainless steel cages at constant temperature and humidity, and a 12-hour light-dark cycle was maintained. Rats were fasted 12 hours prior to the experiment with free access to water. Animals underwent one of two surgical procedures: bowel transection and re-anastomosis or 75% bowel resection and anastomosis. General anesthesia was induced with Pentobarbital (IP 40 mg/kg). Using sterile techniques, the abdomen was opened using a midline incision. In sham rats, simple bowel transection and end-to-end re-anastomosis was performed 15 cm proximal to ileo-cecal junction. In SBS animals, small bowel was resected from a point 5 cm distal to the ligament of Treitz to a point 10 cm proximal to the ileo-cecal junction. Bowel continuity was restored by end-to-end anastomosis using 5-0 Vicryl interrupted sutures. For all operations, the abdominal cavity was closed in two layers with a running suture of 3-0 Dexon. Prior to closure of the abdomen, the rats were resuscitated with a 3 ml intraperitoneal injection of warm normal saline. Rats were fasted for 24 hours but were allowed free access to water.
(§2) Group C—SBS-Insulin (SBS-INS, n=13) rats underwent bowel resection and were fed regular chow diet and water containing insulin (ACTRAPID insulin, NOVO NORDISK, Denmark) at concentration of 1 u/ml. Food and fluid intake of animals were monitored as well as weight for a period of 14 days following treatment after which the animals were sacrificed following intraperitoneal injection of pentobarbital (75 mg/kg).
Segments of small bowel were fixed for 24 hours in 10% formalin and processed into standard paraffin blocks. Five-micron tissue slices stained with hematoxylin-eosin. The sections were studied microscopically using a micrometer eyepiece. Histological images were loaded on a 760×570 pixels resolution buffer using a computerized image analysis system composed of a trichip RGB video-camera (Sony, Japan), installed on a light microscope (Zeiss, Germany) and attached to an IBM compatible personal computer (Pentium III, MMX, 450 mhz, 125 MB RAM), equipped with a frame grabber. […] The villus height and crypt depth were measured using the Image Pro Plus 4 image analysis software (Media Cybernetics, Baltimore, Md., USA). Ten villi and crypts in each section were measured and the mean reading was recorded in microns.

[2] = test system: rat model of short bowel syndrome; experiment: Rat model of SBS: body weight and intestinal adaptation parameters (bowel circumference, bowel and mucosal weight, mucosal DNA and protein); format: in vivo
Procedure: as §1
Experimental design: Forty rats were randomly assigned to one of three groups:
Group A—sham-rats underwent bowel transection (sham, n=14) and than fed with regular chow diet.
Group B—SBS-animals underwent bowel resection (SBS, n=13) and than fed regular chow diet.
as §2
Intestinal adaptation parameters: The small bowel was rapidly removed, rinsed with cold isotonic saline and divided into two segments: jejunum proximal to anastomosis and terminal ileum. Each segment was weighed, cut longitudinally, bowel circumference was measured in three equidistant points as described by Dowling [Dowling R H, Booth C C, 1967, Clin Sci; 32: 139-149] and the mean circumference was calculated. Mucosa was scraped using a glass slide, collected and weighed. Bowel and mucosal weight was calculated per cm of bowel length per 100 g of body weight as described previously [Sukhotnik I, et al., 2002, J Surg Res., December; 108(2):235-42]. Although bowel length may change due to spasm or bowel distension, the calculation per unit of bowel length is considered to be the gold standard in describing structural changes in intestine. DNA and protein were extracted using TRIzol reagent (Rhenium LTD, Jerusalem). The DNA concentrations were recorded in a spectrophotometer and calculated per cm of bowel length. Final protein concentration was measured spectrophotometrically using a commercially available kit (Bio-Rad, Protein Assay) and was calculated per cm of bowel length.
Statistical analysis: The data are expressed as the mean±SEM. A paired Student's t-test and the non-parametric Kruskal-Wallis ANOVA test were used as indicted. p<0.05 was considered statistically significant.

[3] = infant with SBS, oral insulin started, within a few days after initiation
[4] = SBS rats, oral insulin, vs SBS-untreated
[5] = SBS-insulin rats vs SBS-untreated, 14 days, p<0.05
[6] = SBS rats, oral insulin 1 u/ml in water, 14 days, vs SBS-untreated, p<0.05
[7] = SBS rats, oral insulin supplementation (summary)

Substance: insulin
- stool output (infants with SBS; human infants with SBS, oral insulin 1 unit/kg per dose x4/day): reduced stool output
- jaundice (infants with SBS; [3]): decrease in jaundice
- need for parenteral nutrition (infants with SBS; [3]): reduced need for parenteral nutrition
- oral feeds (infants with SBS; [3]): increase in oral feeds
- clinical outcome (infants with SBS; infant with SBS, three months following the addition of insulin): discharged from hospital, thriving and on full oral feeds
- parenteral nutrition status (infants with SBS; infant with SBS, two months following the addition of oral insulin): parenteral nutrition was stopped
- villi height in jejunum [1, 4]: not associated with an increase
- increase in ileal crypt depth [1, 5]: 40%
- increase in ileal villus height [1, 5]: 15%
- increase in jejunal crypt depth [1, 5]: 15%
- additional increase in ileal overall bowel weight [2, 6]: 40%
- additional increase in jejunal mucosal weight [2, 6]: 33%
- additional increase in jejunal overall bowel weight [2, 6]: 18%
- increase in ileal mucosal DNA content [2, 6]: almost two-fold increase
- increase in ileal mucosal protein content [2, 6]: two-fold increase
- increase in ileal mucosal weight [2, 6]: almost two fold increase
- increase in mucosal weight in the remaining segments [2, 7]: 30-200%
- increase in overall bowel weight in the remaining segments [2, 7]: 20-50%
- increase in bowel diameter ([2]; SBS rats, oral insulin supplementation, remaining segments (summary)): approximately 10%
- mucosal DNA in jejunum [2, 4]: not associated with an increase
- mucosal protein in jejunum [2, 4]: not associated with an increase
- body weight gain ([2]; SBS-INS rats (insulin 1 u/ml in water) vs SBS-nontreated, day 7 through 14, p<0.05): gained weight at greater rate
- jejunal and ileal bowel circumference ([2]; SBS-insulin rats vs SBS-untreated, 14 days, insulin 1 u/ml in water): additional increase
